Experimental findings from patent publication US6831199B1, “Pyrimidine compounds and derivatives thereof” (G. D. Searle & Co., priority 1995, dated 2004) are described below.

Structures can show the parent of a compound that is named as a salt. Where two headings read alike, the source gives them in different places.

Test [1] deals with T1, Human vitronectin receptor (αvβ3) (Homo sapiens, UniProt P05106+P06756).
T1 construct: Human vitronectin receptor (αvβ3) was purified from human placenta; from tissue; host or cells: human placenta
In words: Vitronectin adhesion assay (solid phase receptor assay, competition with biotinylated vitronectin). Format: binding. The settings on record: read-out: AvB3 IC50. The procedure, abridged:
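Purified human αvβ3 coated overnight at 4 °C in TBS with 1.0 mM Ca++, Mg++, Mn++, pH 7.4; compounds (top final 1.0×10^−4 M) competed with 1 nM biotinylated vitronectin for 2 h at room temperature. Bound ligand detected by HRP anti-biotin/OPD at A450; values normalized to no-competitor controls, four-parameter curve fit.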

For test [2], the target named is T2, Human fibrinogen receptor (αIIbβ3) (Homo sapiens, UniProt P05106+P08514).
T2 construct: Human fibrinogen receptor (αIIbβ3) was purified from outdated platelets; from tissue; host or cells: outdated human platelets
The experiment in a line: Purified IIb/IIIa receptor assay (solid phase receptor assay, competition with biotinylated vitronectin). Particulars: read-out: IIb/IIIa IC50. It counts as binding. The procedure, abridged:
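Purified platelet αIIbβ3 coated overnight at 4 °C in TBS with 1.0 mM Ca/Mg/Mn, pH 7.4, then BSA-blocked. Compounds (top 1.0×10^−4 M) competed with 1 nM biotinylated vitronectin for 2 h at room temperature. Bound label detected by HRP anti-biotin, A450; values normalized to no-competitor controls, four-parameter fit.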

A further test concerns platelet rich plasma. In words: Human platelet rich plasma assay (ADP induced platelet aggregation). It counts as cell-based. The settings on record: read-out: Human PRP. How it is done: Human Platelet Rich Plasma Assays
Healthy aspirin free donors were selected from a pool of volunteers. The harvesting of platelet rich plasma and subsequent ADP induced platelet aggregation assays were performed as described in Zucker, M. B., “Platelet Aggregation Measured by the Photometric Method”, Methods in Enzymology 169(1989):117-133. Standard venipuncture techniques using a butterfly allowed the withdrawal of 45 mL of whole blood into a 60 mL syringe containing 5 mL of 3.8% trisodium citrate. Following thorough mixing in the syringe, the anti-coagulated whole blood was transferred to a 50 mL conical polyethylene tube. The blood was centrifuged at room temperature for 12 minutes at 200×g to sediment non-platelet cells. Platelet rich plasma was removed to a polyethylene tube and stored at room temperature until used. Platelet poor plasma was obtained from a second centrifugation of the remaining blood at 2000×g for 15 minutes. Platelet counts are typically 300,000 to 500,000 per microliter. Platelet rich plasma (0.45 mL) was aliquoted into siliconized cuvettes and stirred (1100 rpm) at 37° C. for 1 minute prior to adding 50 uL of pre-diluted test compound. After 1 minute of mixing, aggregation was initiated by the addition of 50 uL of 200 uM ADP. Aggregation was recorded for 3 minutes in a Payton dual channel aggregometer (Payton Scientific, Buffalo, N.Y.). The percent inhibition of maximal response (saline control) for a series of test compound dilutions was used to determine a dose response curve.

Where [3] appears, read: Homo sapiens, Platelet, ADP induced platelet aggregation in human platelet rich plasma.

For the compound `N=C(N)Nc1cccc(C(=O)NCC(=O)NC(CC(=O)O)c2cc([N+](=O)[O-])ccc2O)c1` (racemic) [Example 226, (±)β-[[2-[[[3-[(aminoiminomethyl)amino]phenyl]carbonyl]amino]acetyl]amino]-2-hydroxy-5-nitrobenzenepropanoic acid, trifluoroacetate salt], the IC50 in test [1] was 7.07 nM; in test [2] it was 2910 nM; in the test on platelet rich plasma (setting [3]), greater than 200000 nM.
The matching figures for `CCN/C(=N\C#N)Nc1cccc(C(=O)NCC(=O)NC(CC(=O)O)c2ccccc2)c1` (stereo not drawn) [Example 139, β-[[2-[[[3-[[(cyanoimino)(ethylamino)methyl]amino]phenyl]carbonyl]amino]acetyl]amino]benzenepropanoic acid]: 23.8 nM, 16100 nM and greater than 200000 nM.
The matching figures for `N=C(N)Nc1cccc(C(=O)NCC(=O)NC(CC(=O)O)c2ccc3c(c2)OCCO3)c1` (stereo not drawn) [Example 95, β-[[(2-[[[3-[(aminoiminomethyl)amino]phenyl]carbonyl]amino]acetyl]amino]-1,4-benzodioxin-6-propanoic acid, trifluoroacetate salt]: 1.43 nM, 25.4 nM and greater than 200000 nM.
The matching figures for `CCOC(=O)CC(NC(=O)CNC(=O)c1cccc(NC(=N)N)c1)c1cccnc1` (racemic) [Example 1, (±)ethyl β-[[2-[[[3-[(aminoiminomethyl)amino]phenyl]carbonyl]amino]acetyl]amino]pyridine-3-propanoate, bis(trifluoroacetate)salt]: 76.9 nM, 8350 nM and greater than 200000 nM.
For the compound `N=C(N)Nc1cccc(C(=O)NCC(=O)NC(CC(=O)O)c2cc(Br)ccc2O)c1` (racemic) [Example 228, (±)β-[[2-[[[3-[(aminoiminomethyl)amino]phenyl]carbonyl]amino]acetyl]amino]-5-bromo-2-hydroxybenzenepropanoic acid, trifluoroacetate salt, monohydrate], the IC50 in test [1] was 3.36 nM; in test [2], 583 nM; in the test with platelet rich plasma (setting [3]), greater than 200000 nM.
The matching figures for `NC(=O)/N=C(/N)Nc1cccc(C(=O)NCC(=O)NC(CC(=O)O)c2cc(Cl)cc(Cl)c2)c1` (stereo not drawn) [Example 162, β-[[(2-[[[3-[[amino(aminocarbonyl)imino]methyl]amino]phenyl]carbonyl]amino]acetyl]amino]-3,5-dichlorobenzenepropanoic acid, trifluoroacetate salt]: 4.62 nM, 1340 nM and greater than 200000 nM.
`NC(=S)Nc1cccc(C(=O)NCC(=O)NC(CC(=O)O)c2ccccc2)c1` (stereo not drawn) [Example 117, β-[[2-[[[3-[(aminothioxomethyl)amino]phenyl]carbonyl]amino]acetyl]amino]benzenepropanoic acid]: the IC50 in test [1] was 60.1 nM; in test [2], 20100 nM; in the test on platelet rich plasma (setting [3]), greater than 200000 nM.
The matching figures for `N=C(N)Nc1cccc(C(=O)NCC(=O)NC(CC(=O)O)CC(=O)O)c1` [Example 53, 3-[[2-[[[3-[(aminoiminomethyl)amino]phenyl]carbonyl]amino]acetyl]amino]pentanedioic acid, trifluoroacetate salt]: 54.6 nM, 930 nM and greater than 200000 nM.
The matching figures for `O=C(O)CC(NC(=O)CNC(=O)c1cccc(NC2=NCCCCC2)c1)c1cc(Cl)cc(Cl)c1O` (racemic) [Example 232, (±)3,5-dichloro-2-hydroxy-β-[[2-[[[3-[(3,4,5,6-tetrahydro-2H-azepin-7-yl)amino]phenyl]carbonyl]amino]acetyl]amino]benzenepropanoic acid, trifluoroacetate salt, monohydrate]: 19.1 nM, 12100 nM and greater than 200000 nM.
The matching figures for `O=C(O)CC(NC(=O)CNC(=O)c1cccc(NC(=O)NCc2cccc3ccccc23)c1)c1cccnc1` (stereo not drawn) [Example 131, β-[[2-[[[3-[[[(1-naphthalenylmethyl)amino]carbonyl]amino]phenyl]carbonyl]amino]acetyl]amino]pyridine-3-propanoic acid, trifluoroacetate salt]: 3.82 nM, 1760 nM and greater than 20000 nM.
Take `N=C(N)Nc1cccc(C(=O)NCC(=O)NC(CC(=O)O)c2cccc3ccccc23)c1` (racemic) [Example 41, (±)β-[[2-[[[3-[(aminoiminomethyl)amino]phenyl]carbonyl]amino]acetyl]amino]naphthalene-1-propanoic acid, trifluoroacetate salt]: the figures for the IC50 (in test [1]; in test [2]; in the test on platelet rich plasma (setting [3])) were 12.1 nM, 830 nM and greater than 200000 nM, respectively.
The matching figures for `N#C/N=C(/NCc1cccnc1)Nc1cccc(C(=O)NCC(=O)NC(CC(=O)O)c2ccccc2)c1` (stereo not drawn) [Example 146, β-[[2-[[[3-[[(cyanoimino)[3-pyridinylmethyl)amino]methyl]amino]phenyl]carbonyl]amino]acetyl]amino]benzenepropanoic acid, bis(trifluoroacetate)salt]: 14.3 nM, 879 nM and greater than 200000 nM.
The matching figures for `N=C(Nc1cccc(C(=O)NCC(=O)NC(CC(=O)O)c2cccnc2)c1)c1ccccc1` (racemic) [Example 26, (±)β-[[2-[[[3-[(iminophenylmethyl]amino]phenyl]carbonyl]amino]acetyl]amino]pyridine-3-propanoic acid, bis(trifluoroacetate)salt]: 14.2 nM, 809 nM and greater than 200000 nM.
Regarding `COc1ccc(C(CC(=O)O)NC(=O)CNC(=O)c2cccc(NC(=N)N)c2)c(O)c1` (racemic) [Example 222, (±)β-[[2-[[[3-[(aminoiminomethyl)amino]phenyl]carbonyl]amino]acetyl]amino]-2-hydroxy-4-methoxybenzenepropanoic acid], the IC50 was 2.02 nM in test [1], 112 nM in test [2] and greater than 200000 nM in the test on platelet rich plasma (setting [3]).
The matching figures for `N=C(N)Nc1cccc(C(=O)NCC(=O)NC(CC(=O)O)c2ccco2)c1` (racemic) [Example 55, (±)β-[[2-[[[3-[(aminoiminomethyl)amino]phenyl]carbonyl]amino]acetyl]amino]furan-2-propanoic acid, trifluoroacetate salt]: 4.77 nM, 117 nM and greater than 200000 nM.
With `N=C(N)Nc1cccc(C(=O)NCC(=O)NC(CC(=O)O)c2cc(Cl)cc(Cl)c2O)c1` (racemic) [Example 225, (±)β-[[2-[[[3-[(aminoiminomethyl)amino]phenyl]carbonyl]amino]acetyl]amino]-3,5-dichloro-2-hydroxybenzenepropanoic acid, trifluoroacetate salt, monohydrate], the IC50 in test [1] was 2.76 nM; in test [2], 471 nM; in the test on platelet rich plasma (setting [3]) it was greater than 20000 nM.
As to `O=C(O)CC(NC(=O)CNC(=O)c1cccc(NC(=O)NCc2ccccc2)c1)c1ccc2c(c1)OCO2` (stereo not drawn) [Example 122, β-[[2-[[[3-[[[(phenylmethyl)amino]carbonyl]amino]phenyl]carbonyl]amino]acetyl]amino]-1,3-benzodioxole-5-propanoic acid], the IC50 in test [1] was 0.79 nM; in test [2] it was 420 nM; in the test on platelet rich plasma (Homo sapiens, Platelet), greater than 20000 nM.
With `N=C(N)Nc1cccc(C(=O)NCC(=O)NC(CCSc2ccccc2C(=O)O)CC(=O)O)c1` (racemic) [60(B), (±)2-[3-[[2-[[[3-[(aminoiminomethyl)amino]phenyl)carbonyl]amino]acetyl]amino]-4-carboxybutyl]thio]benzoic acid, trifluoroacetate salt], the IC50 in test [1] is 1.21 nM; in test [2], 72.7 nM; in the test with platelet rich plasma (ADP induced platelet aggregation in human platelet rich plasma) it was greater than 200000 nM.
In the case of `N#C/N=C(\NCc1ccccc1)Nc1cccc(C(=O)NCC(=O)NC(CC(=O)O)c2ccccc2)c1` (stereo not drawn) [Example 136, β-[[2-[[[3-[[(cyanoimino)[(phenylmethyl)amino]methyl]amino]phenyl]carbonyl]amino]acetyl]amino]benzenepropanoic acid], the IC50 in test [1] was 54.4 nM; in test [2] it was 14200 nM; with platelet rich plasma (setting [3]) it was greater than 20000 nM.
